Source: PubChem BioAssay AID2060341 (Molecular Pharmacology Branch, DTP, NCI, 2025)
pIC50: −log10 of the molar value.

Tested on: 327498-153-R-J2-PDC multicell spheroid viability
Experiment: Anticancer human tumor 327498-153-R-J2-PDC patient-derived uterine carcinosarcoma cell line growth inhibition [IpAb]
Conditions: for pIC50: curve of first compound; for viability, T/C: stronger effect = lower value
From the text: Combinatorial screen of targeted agents with ipatasertib and abemaciclib in multi-cell type tumor spheroids
A high-throughput screen of multi-cell type tumor spheroids was designed to identify active combinations of targeted small molecules and ipatasertib or abemaciclib. Complex spheroids include a stromal component modeled by human endothelial cells (HUVEC) and fibroblasts modeled by human mesenchymal stem cells (MSCs). The concentration ranges selected for each drug and investigational agent were based upon clinically achievable concentrations if the clinical Cmax of the agent was known.
Compounds. The drugs and investigational agents: ipatasertib (NSC767898), abemaciclib(NSC768073), selumetinib (NSC741078), trametinib (758246), adavosertib (NSC754352), everolimus (NSC733504), sapanisertib (NSC764658), vemurafenib (NSC761431), venetoclax (NSC766270), copanlisib (NSC809693), apelisib (NSC765974), palbociblib (NSC758247), vemurafenib (NSC761431), dabrafenib (NSC764134), ravoxertinib (NSC781343), BMS-387032 (NSC767048), sotorasib (NSC818433), talazoparib (NSC767125) and afursertib (NSC778305), were obtained from the National Cancer Institute (NCI) Developmental Therapeutics Program Chemical Repository. The FDA-approved anticancer drug set is available from the NCI Developmental Therapeutics Program. […] The stock solutions were prepared in dimethyl sulfoxide (DMSO, Sigma-Aldrich, St. Louis, MO, cat. D2650) at 800-fold the tested concentration and stored at -70 degrees C prior to their use. All drugs and investigational agents were tested over a range starting from a high concentration at or near the clinical Cmax and decreasing in half-log increments. If the clinical Cmax for an agent had not been determined, the highest concentration tested was 10 microM.
NCI60 Cell Culture. NCI60 cell lines were obtained from the NCI Developmental Therapeutics Program Tumor Repository. For each lot of cells, the Repository performed Applied Biosystems AmpFLSTR Identifiler testing with PCR amplification to confirm consistency with the published Identifier STR profile for each cell line. Cells were kept in continuous culture for no more than 20 passages. The optimal seeding densities for each of the cell lines at each time point assessed were determined prior to performing the concentration response studies. Briefly, the NCI60 human tumor lines were grown as monolayers in RPMI 1640 medium supplemented with 10% FBS and 2 mmol/L L-glutamine.
An additional 9 lines were from the NCI60 cell line panel including MDA-MB-231 breast carcinoma, MDA-MB-468 breast carcinoma, MCF7 breast carcinoma, Hs578T breast carcinoma, MALME-3M melanoma, SK-MEL-2 melanoma, SK-OV-3 ovarian carcinoma, DU-145 prostate carcinoma, PC-3 prostate carcinoma, all cell lines along with major genetic alterations are listed on Table 2. Pooled donor human umbilical vein endothelial cells (HUVEC, Lonza, cat. CC-2519) and human mesenchymal stem cells (hMSC, Lonza, cat. PT-2501) were purchased from Lonza (Walkersville, MD).
PDMR cell lines were grown in complete medium (DC medium): Dulbecco's modified Eagle's medium (DMEM)/F12 supplemented with 5% fetal bovine serum (FBS), 2 mM L-glutamine, 100 U/mL penicillin and 100 µg/ml streptomycin, 0.4 µg/ml hydrocortisone, 10 ng/ml epidermal growth factor (EGF) recombinant human protein, 24 µg/mL adenine, and 0.1 mg/mL primocin. During culture from frozen stock vials, PDMR cells were cultured in the same medium containing 10 µM Y-27632 (see Table 3). The PDCs were cultured in complete DMEM/F12 media without 10 microM Y-27632 dihydrochloride for at least two passages prior to the screen. The pooled donor HUVEC and hMSC were cultured in endothelial cell growth medium 2 (PromoCell, Heidelberg, Germany, cat. C-22011) and mesenchymal stem cell growth medium 2 (PromoCell, cat. C-28009), respectively. For all experiments, HUVEC and hMSC were used at passages </=5.
[…]

[1] = second compound 0.1 µM, first compound 0.0316 µM
[2] = second compound 0.1 µM, first compound 0.1 µM
[3] = second compound 0.1 µM, first compound 0.316 µM
[4] = second compound 0.1 µM, first compound 1 µM
[5] = second compound 0.316 µM, first compound 0.0316 µM
[6] = second compound 0.316 µM, first compound 0.1 µM
[7] = second compound 0.316 µM, first compound 0.316 µM
[8] = second compound 0.316 µM, first compound 1 µM
[9] = second compound 1 µM, first compound 0.0316 µM
[10] = second compound 1 µM, first compound 0.1 µM
[11] = second compound 1 µM, first compound 0.316 µM
[12] = second compound 1 µM, first compound 1 µM
[13] = second compound 3.16 µM, first compound 0.0316 µM
[14] = second compound 3.16 µM, first compound 0.1 µM
[15] = second compound 3.16 µM, first compound 0.316 µM
[16] = second compound 3.16 µM, first compound 1 µM
[17] = second compound 10 µM, first compound 0.0316 µM
[18] = second compound 10 µM, first compound 0.1 µM
[19] = second compound 10 µM, first compound 0.316 µM
[20] = second compound 10 µM, first compound 1 µM
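Note: spheroids exposed to agents for 7 days.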
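Throughout, for viability, T/C: 100% = DMSO vehicle control viability.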

SMILES | pIC50 (second compound 0.1 µM) | pIC50 (second compound 0.316 µM) | pIC50 (second compound 1 µM) | pIC50 (second compound 3.16 µM) | pIC50 (second compound 10 µM) | viability, T/C [1] [%] | viability, T/C [2] [%] | viability, T/C [3] [%] | viability, T/C [4] [%] | viability, T/C [5] [%] | viability, T/C [6] [%] | viability, T/C [7] [%] | viability, T/C [8] [%] | viability, T/C [9] [%] | viability, T/C [10] [%] | viability, T/C [11] [%] | viability, T/C [12] [%] | viability, T/C [13] [%] | viability, T/C [14] [%] | viability, T/C [15] [%] | further results
COc1c(OCCCN2CCOCC2)ccc2c3n(c(=NC(=O)c4cnc(N)nc4)nc12)CCN3 + CC(C)NCC(C(=O)N1CCN(c2ncnc3c2C(C)CC3O)CC1)c1ccc(Cl)cc1 | 7.34 | 7.45 | 8.38 | > 8.50 | > 8.50 | 58 | 33.3 | 16.8 | 9.2 | 52.1 | 27.5 | 15.2 | 8.52 | 32.4 | 21.1 | 9.37 | 7.49 | 23.6 | 15 | 8.38 | viability, T/C (second compound 0.1 µM, first compound 0.00316 µM): 81.6%; viability, T/C (second compound 0.1 µM, first compound 0.01 µM): 74.9%; viability, T/C (second compound 0.316 µM, first compound 0.00316 µM): 67.2%; viability, T/C (second compound 0.316 µM, first compound 0.01 µM): 67.5%; viability, T/C (second compound 1 µM, first compound 0.00316 µM): 53.5%; viability, T/C (second compound 1 µM, first compound 0.01 µM): 39.2%; viability, T/C (second compound 3.16 µM, first compound 0.00316 µM): 42.2%; viability, T/C (second compound 3.16 µM, first compound 0.01 µM): 33.3%; viability, T/C [16]: 5.77%; viability, T/C (second compound 10 µM, first compound 0.00316 µM): 34.2%; viability, T/C (second compound 10 µM, first compound 0.01 µM): 25.9%; viability, T/C [17]: 22.4%; viability, T/C [18]: 11.9%; viability, T/C [19]: 7.65%; viability, T/C [20]: 4.58%
Cc1nc(NC(=O)N2CCCC2C(N)=O)sc1-c1ccnc(C(C)(C)C(F)(F)F)c1 (stereo not given) + CC(C)NCC(C(=O)N1CCN(c2ncnc3c2C(C)CC3O)CC1)c1ccc(Cl)cc1 | 5.00 | 5.35 | 5.91 | 7.30 | > 7.50 | 91.1 | 93.2 | 83.3 | 72.7 | 72 | 70.5 | 67.8 | 59.2 | 56.4 | 57.7 | 59.2 | 49.8 | 54.3 | 44.9 | 36.2 | viability, T/C (second compound 0.1 µM, first compound 3.16 µM): 63.8%; viability, T/C (second compound 0.1 µM, first compound 10 µM): 49.4%; viability, T/C (second compound 0.316 µM, first compound 3.16 µM): 57.8%; viability, T/C (second compound 0.316 µM, first compound 10 µM): 38.5%; viability, T/C (second compound 1 µM, first compound 3.16 µM): 42.5%; viability, T/C (second compound 1 µM, first compound 10 µM): 30.5%; viability, T/C [16]: 34.6%; viability, T/C (second compound 3.16 µM, first compound 3.16 µM): 33.7%; viability, T/C (second compound 3.16 µM, first compound 10 µM): 21.3%; viability, T/C [17]: 38.7%; viability, T/C [18]: 31.7%; viability, T/C [19]: 26.6%; viability, T/C [20]: 23.5%; viability, T/C (second compound 10 µM, first compound 3.16 µM): 25.5%; viability, T/C (second compound 10 µM, first compound 10 µM): 17.2%
